In US8188272B2, “Fused heterocyclic compounds useful as kinase modulators” (Bristol-Myers Squibb Company, priority 2007, dated 2012):

Tests used:
human recombinant Btk = molecular target: T1, human recombinant Btk (Homo sapiens, UniProt Q06187); experiment: Human Recombinant Btk Enzyme Assay; format: biochemical; conditions: human recombinant Btk 1 nM, ATP 20 μM, 60 min room temperature, Caliper LabChip
T1 construct: purchased Invitrogen Corporation
Experimental: Human Recombinant Btk Enzyme Assay
To V-bottom 384-well plates were added test compounds, human recombinant Btk (1 nM, Invitrogen Corporation), fluoresceinated peptide (1.5 μM), ATP (20 μM), and assay buffer (20 mM HEPES pH 7.4, 10 mM MgCl2, 0.015% Brij35 and 4 mM DTT in 1.6% DMSO), with a final volume of 30 μL. After incubating at room temperature for 60 min, the reaction was terminated by adding 45 μl of 35 mM EDTA to each sample. The reaction mixture was analyzed on the Caliper LabChip 3000 (Caliper, Hopkinton, Mass.) by electrophoretic separation of the fluorescent substrate and phosphorylated product. Inhibition data were calculated by comparison to no enzyme control reactions for 100% inhibition and no inhibitor controls for 0% inhibition. Dose response curves were generated to determine the concentration required inhibiting 50% of kinase activity (IC50). Compounds were dissolved at 10 mM in dimethylsulfoxide (DMSO) and evaluated at eleven concentrations.
Using this assay, the following IC50 values derived by non-linear regression analysis were determined and compared to those values of certain compounds in US 2007/0078136 and US 2008/0045536.

Ramos RA1 B cells = experiment: Ramos FLIPR Assay (intracellular calcium); format: cell-based; conditions: Homo sapiens; Ramos RA1 B cells stimulated with F(ab')2 anti-IgM/IgG, peak intracellular calcium; read-out: Human Ramos Cell FLIPR (IC50 uM)
Experimental: Ramos RA1 B cells (ATCC CRL-1596) at a density of 2×10^6 cells/ml in RPMI minus phenol red (Invitrogen 11835-030) and 50 mM HEPES (Invitrogen 15630-130) containing 0.1% BSA (Sigma A8577) were added to one half volume of calcium loading buffer (BD bulk kit for probenecid sensitive assays, # 640177) and incubated at room temperature in the dark for 1 hour. Dye-loaded cells were pelleted (Beckmann GS-CKR, 1200 rpm, RT, 5 minutes) and resuspended in RT RPMI minus phenol red with 50 mM HEPES and 10% FBS to a density of 1×10^6 cells/ml. 150 μl aliquots (150,000/well) were plated into 96 well poly-D-lysine coated assay plates (BD 35 4640) and briefly centrifuged (Beckmann GS-CKR 800 rpm, 5 minutes, without brake). 50 μl compound dilutions in 0.4% DMSO/RPMI minus phenol red+50 mM HEPES+10% FBS were added to the wells and the plate was incubated at RT in the dark for 1 hour. Assay plate was briefly centrifuged as above prior to measuring calcium levels.
Using the FLIPR1 (Molecular devices), cells were stimulated by adding 50 μl 200 μg/ml F(ab′)2 anti-IgM/IgG (Jackson ImmunoResearch 109-006-127) diluted in 1X HBSS (Invitrogen 14025-076), 50 mM HEPES, 0.1% BSA. Changes in intracellular calcium concentrations were measured for 180 seconds and percent inhibition was determined relative to peak calcium levels seen in the presence of F(ab′)2 anti-IgM/IgG only.

Mouse splenic B cells = experiment: Mouse Splenic B Cell Proliferation Assay; format: cell-based; conditions: Balb/c splenic B cells stimulated with anti-mouse IgG IgM F(ab')2 10 μg/ml, 72 hours, 3[H]-thymidine
Experimental: Mouse Splenic B Cell Proliferation Assay
Spleens from Balb/c mice (<12 weeks old) were mashed through screens and red blood cells were removed from splenocytes with RBC lysing buffer (Sigma-Aldrich Chemical Co, —St. Louis, Mo.). T cells were depleted by incubation on nylon wool columns (Wako, Richmond, Va.). Resulting splenic B cells prepared this way were routinely >90% CD19^+ as measured by FACS analysis. B cells (1×10^5 cells per well) were added to serial dilutions of compounds in triplicate in 96-well flat-bottom plates in RPMI 1640 (Invitrogen, Grand Island, N.Y.), supplemented with 10% heat-inactivated fetal calf serum (FCS, Summit Biotechnology, Fort Collins, Colo.), containing 1% L-glutamine (Invitrogen), […] gentamicin (Invitrogen) and 5×10^−5M β-mercaptoethanol (Sigma-Aldrich). Cells were stimulated with 10 μg/ml of Affinipure F(ab′)2 fragment goat anti-mouse IgG IgM (Jackson Immunoresearch, West Grove, Pa.). Cultures were incubated for 72 hours, and pulsed for the last 6 hours with one μCi/well of ^3[H]-thymidine (PerkinElmer, Boston, Mass.) prior to harvest on a Packard cell harvester (PerkinElmer), and counted by liquid scintillation on a Packard TopCount NXT (PerkinElmer).

Human tonsillar B cells = experiment: Human Tonsillar B Cell Proliferation Assay; format: cell-based; conditions: tonsillar B cells stimulated with anti Human IgG+IgM F(ab')2 40 μg/ml, 72 hours, 3[H]-thymidine
Excerpt: Human Tonsillar B Cell Proliferation Assay
Tonsils were excised from patients undergoing routine tonsillectomy. Tonsil tissue was minced, mashed through screens and mononuclear cells were isolated on ficoll density gradients (Lymphocyte Separation Media; Mediatech Inc., Herndon, Va.). T cells were depleted from mononuclear cells by rosetting with sheep red blood cells (SRBC, Colorado Serum Company; Denver, Colo.). Tonsillar B cells prepared by this method were routinely >95% CD19^+ as measured by FACS analysis. B cells (1×10^5 cells per well) were added to serial dilutions of compounds in triplicate in 96-well flat-bottom plates in RPMI 1640, (Invitrogen, Grand Island, N.Y.), supplemented with 10% heat-inactivated fetal calf serum (FCS, Summit Biotechnology, Fort Collins, Colo.), and containing antibiotic/antimycotic (Invitrogen, 1:100 dilution) and gentamicin (Invitrogen, 5 μg/ml). Cells were stimulated with 40 μg/ml AffinPure F(ab′)2 Fragment Goat anti Human IgG+IgM (Jackson Immunoresearch, West Grove, Pa.) in a total volume of 0.2 ml. Cultures were incubated for 72 hours, and pulsed for the last 6 hours with one μCi/well of ^3[H]-thymidine (PerkinElmer, Boston, Mass.) prior to harvest on a Packard cell harvester (PerkinElmer), and counted by liquid scintillation on a Packard TopCount NXT (PerkinElmer).

T1 sequence (Q06187 whole entry): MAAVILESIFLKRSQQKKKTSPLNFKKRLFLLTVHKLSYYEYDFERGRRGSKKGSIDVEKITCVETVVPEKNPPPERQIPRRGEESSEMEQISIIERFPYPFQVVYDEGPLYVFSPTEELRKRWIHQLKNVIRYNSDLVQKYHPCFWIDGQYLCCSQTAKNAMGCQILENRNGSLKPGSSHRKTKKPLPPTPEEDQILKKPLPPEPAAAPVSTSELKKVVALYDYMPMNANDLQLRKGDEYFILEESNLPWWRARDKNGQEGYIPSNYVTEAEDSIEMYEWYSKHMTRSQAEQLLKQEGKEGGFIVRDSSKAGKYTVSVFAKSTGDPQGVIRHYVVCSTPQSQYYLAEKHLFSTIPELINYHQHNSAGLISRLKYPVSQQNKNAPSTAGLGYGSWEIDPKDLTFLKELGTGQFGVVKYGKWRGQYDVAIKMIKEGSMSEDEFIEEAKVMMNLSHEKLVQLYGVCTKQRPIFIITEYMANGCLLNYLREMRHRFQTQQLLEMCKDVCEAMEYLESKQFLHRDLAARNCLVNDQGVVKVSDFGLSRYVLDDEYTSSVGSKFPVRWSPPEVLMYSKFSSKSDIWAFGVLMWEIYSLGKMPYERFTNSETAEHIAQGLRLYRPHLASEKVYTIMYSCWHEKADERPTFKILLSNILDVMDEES

`N[C@H]1CC[C@H](Nc2cc(Nc3ccc4ccccc4n3)c3nccn3n2)CC1` [I(159) in US 2008/0045536, reference compound] gave an IC50 (human recombinant Btk) of 0.228 µM.

In the case of `O=C(c1ccc(Nc2cc(N[C@H]3CCCNC3)nn3ccnc23)cc1)N1CCOCC1` [V(10) in US 2008/0045536, reference compound], the IC50 (human recombinant Btk) is reported as 1.96 µM.

With `CC(C)(C)c1ccc(C(=O)N[C@@H]2CCCN(c3nc(Nc4ccc(C(=O)N5CCOCC5)cc4)c4nccn4n3)C2)cc1` [Example 1, (R)-4-tert-Butyl-N-(1-(4-(4-(morpholine-4-carbonyl)phenylamino)imidazo[1,2-f][1,2,4]triazin-2-yl)piperidin-3-yl)benzamide] the IC50 (Ramos RA1 B cells) was 0.26 µM.

`NC(=O)c1cnc2c(Nc3ccc(C(=O)N4CCOCC4)cc3)nc(N3CCC[C@@H](NC(=O)c4ccccc4)C3)nn12` [Example 30, (R)-2-(3-Benzamidopiperidin-1-yl)-4-(4-(morpholine-4-carbonyl)phenylamino)imidazo[1,2-f][1,2,4]-triazine-7-carboxamide] showed an IC50 (Mouse splenic B cells) of 0.98 µM.

In the case of `O=C(N[C@@H]1CCCN(c2nc(Nc3ccc(C(=O)N4CCOCC4)cc3)c3nccn3n2)C1)c1ccccc1` [Example 36, (R)—N-(1-(4-(4-(morpholine-4-carbonyl)phenylamino)imidazo[1,2-f][1,2,4]triazin-2-yl)piperidin-3-yl)benzamide], the IC50 (Human tonsillar B cells) is reported as 0.45 µM.

For `Cc1c(N[C@H]2CC[C@H](N)CC2)nn2ccnc2c1Nc1ccc(C(=O)N2CCOCC2)cc1` [III(18) in US 2008/0045536, reference compound], the IC50 (human recombinant Btk) was > 50 µM.

In the case of `CC(C)(C)c1ccc(C(=O)N[C@@H]2CCCN(c3nc(Nc4ccc(C(=O)N5CCN(CCO)CC5)cc4)c4nccn4n3)C2)cc1` [Example 6, (R)-4-tert-Butyl-N-(1-(4-(4-(4-(2-hydroxyethyl)piperazine-1-carbonyl)phenylamino)imidazo[1,2-f][1,2,4]triazin-2-yl)piperidin-3-yl)benzamide], the IC50 (Human tonsillar B cells) is reported as 0.17 µM.

`CCOc1ccc(Nc2nc(N[C@H]3CC[C@H](N)CC3)nn3ccnc23)cc1` [XIII in US 2007/0078136, reference compound] was tested, and the IC50 (human recombinant Btk) was 1.76 µM.

For `Nc1cnc2c(Nc3ccc(C(=O)N4CCOCC4)cc3)nc(N3CCC[C@@H](NC(=O)c4cc5ccccc5[nH]4)C3)nn12` [Example 28, (R)—N-(1-(7-Amino-4-(4-(morpholine-4-carbonyl)phenylamino)imidazo[1,2-f][1,2,4]triazin-2-yl)piperidin-3-yl)-1H-indole-2-carboxamide], the IC50 (human recombinant Btk) was 0.014 µM.

For `O=C(N[C@@H]1CCCN(c2nc(Nc3ccc(C(=O)N4CCOCC4)cc3)c3nccn3n2)C1)OCc1ccccc1` [Example 4, (R)-Benzyl 1-(4-(4-(morpholine-4-carbonyl)phenylamino)imidazo[1,2-f][1,2,4]triazin-2-yl)piperidin-3-ylcarbamate], the IC50 (human recombinant Btk) was 0.2 µM.

`CC(C)(C)c1ccc(C(=O)N[C@@H]2CCCN(c3nc(Nc4ccc(C(=O)N5CCOCC5)cc4)c4ncc(C#N)n4n3)C2)cc1` [Example 32, (R)-4-tert-Butyl-N-(1-(7-cyano-4-(4-(morpholine-4-carbonyl)phenylamino)imidazo[1,2-f][1,2,4]triazin-2-yl)piperidin-3-yl)benzamide] showed an IC50 (human recombinant Btk) of 0.1 µM and an IC50 (Mouse splenic B cells) of 0.31 µM.

In the case of `CC(C)(C)c1ccc(C(=O)N[C@@H]2CCCN(c3nc(Nc4ccc(C(=O)N5CC(O)C5)cc4)c4nccn4n3)C2)cc1` [Example 20], the IC50 (human recombinant Btk) is reported as 0.081 µM.

Compound `CN1CCN(C(=O)c2ccc(Nc3nc(N4CCC[C@@H](NC(=O)c5ccc(C(C)(C)C)cc5)C4)nn4ccnc34)cc2)CC1` [Example 5, (R)-4-tert-Butyl-N-(1-(4-(4-(4-methylpiperazine-1-carbonyl)phenylamino)imidazo[1,2-f][1,2,4]triazin-2-yl)piperidin-3-yl)benzamide] has an IC50 (Human tonsillar B cells) of 0.037 µM.

`CC(C)(C)c1ccc(C(=O)N[C@H]2CCCN(c3nc(Nc4ccc(C(=O)N5CCOCC5)cc4)c4nccn4n3)C2)cc1` [Example 2, (S)-4-tert-Butyl-N-(1-(4-(4-(morpholine-4-carbonyl)phenylamino)imidazo[1,2-f][1,2,4]triazin-2-yl)piperidin-3-yl)benzamide] was tested, and the IC50 (human recombinant Btk) was 0.8 µM and the IC50 (Ramos RA1 B cells) was 4.08 µM.

For `CC(C)(C)c1ccc(C(=O)N[C@@H]2CCCN(c3nc(Nc4ccc(C(=O)N[C@H]5CCNC5)cc4)c4nccn4n3)C2)cc1` [Example 12, 4-tert-Butyl-N—((R)-1-(4-(4-((R)-pyrrolidin-3-ylcarbamoyl)phenylamino)imidazo[1,2-f][1,2,4]triazin-2-yl)piperidin-3-yl)benzamide], the IC50 (Human tonsillar B cells) was 1.58 µM.

`NCc1cnc2c(Nc3ccc(C(=O)N4CCOCC4)cc3)nc(N3CCC[C@@H](NC(=O)c4cc5ccccc5[nH]4)C3)nn12` [Example 35, (R)—N-(1-(7-(Aminomethyl)-4-(4-(morpholine-4-carbonyl)phenylamino)imidazo[1,2-f][1,2,4]triazin-2-yl)piperidin-3-yl)-1H-indole-2-carboxamide] showed an IC50 (Ramos RA1 B cells) of 1.24 µM.

In the case of `CC(C)(C)c1ccc(C(=O)N[C@@H]2CCCN(c3nc(Nc4ccc(C(N)=O)cc4)c4nccn4n3)C2)cc1` [Example 10, (R)-4-tert-Butyl-N-(1-(4-(4-carbamoylphenylamino)imidazo[1,2-f][1,2,4]triazin-2-yl)piperidin-3-yl)benzamide], the IC50 (Mouse splenic B cells) is reported as 0.33 µM.

`CC(C)(C)c1ccc(C(=O)N[C@@H]2CCCN(c3nc(Nc4ccc(C(=O)N5CCOCC5)cc4)c4ncc(N)n4n3)C2)cc1` [Example 26, (R)—N-(1-(7-Amino-4-(4-(morpholine-4-carbonyl)phenylamino)imidazo[1,2-f][1,2,4]triazin-2-yl)piperidin-3-yl)-4-tert-butylbenzamide] showed an IC50 (Ramos RA1 B cells) of 0.015 µM and an IC50 (Mouse splenic B cells) of 0.08 µM.

Work on `CC(C)(C)c1ccc(C(=O)N[C@@H]2CCCN(c3nc(Nc4ccc(C(=O)N[C@@H]5CCNC5)cc4)c4nccn4n3)C2)cc1` [Example 9, 4-tert-Butyl-N—((R)-1-(4-(4-((S)-pyrrolidin-3-ylcarbamoyl)phenylamino)imidazo[1,2-f][1,2,4]triazin-2-yl)piperidin-3-yl)benzamide] yielded an IC50 (Human tonsillar B cells) of 1.91 µM and an IC50 (Mouse splenic B cells) of 1.29 µM.

With `CC(C)(C)c1ccc(C(=O)N[C@@H]2CCCN(c3nc(Nc4ccc(C(=O)N5CCNCC5)cc4)c4nccn4n3)C2)cc1` [Example 11, (R)-4-tert-Butyl-N-(1-(4-(4-(piperazine-1-carbonyl)phenylamino)imidazo[1,2-f][1,2,4]triazin-2-yl)piperidin-3-yl)benzamide] the IC50 (human recombinant Btk) was 0.013 µM and the IC50 (Ramos RA1 B cells) was 0.028 µM.
